# Reference: patent publication US7495018B2, “Substituted 1,3-thiazole compounds, their production and use” (Takeda Pharmaceutical Company Limited, priority 2000, dated 2009)
row,melting point [°C],Compound
1,102 to 103,"CCC(=O)Nc1cc(-c2sc(C(C)OC(=O)c3ccccc3)nc2-c2cccc(C)c2)ccn1 (stereo not drawn) [Example 102-5, 1-[4-(3-methylphenyl)-5-(2-propionylamino-4-pyridyl)-1,3-thiazol-2-yl]ethyl benzoate]"
2,124 to 127,"CCC(=O)Nc1cc(-c2sc(C(C)OC(=O)c3ccccc3)nc2-c2cccc(Cl)c2)ccn1 (stereo not drawn) [Example 102-6, 1-[4-(3-chlorophenyl)-5-(2-propionylamino-4-pyridyl)-1,3-thiazol-2-yl]ethyl benzoate]"
3,152 to 154,"CC(=O)Nc1cc(-c2sc(C(C)OC(=O)c3ccccc3)nc2-c2cccc(Cl)c2)ccn1 (stereo not drawn) [Example 103-1, 1-[5-(2-acetylamino-4-pyridyl)-4-(3-chlorophenyl)-1,3-thiazol-2-yl]ethyl benzoate]"
4,99 to 100,"CCOC(=O)Cc1nc(-c2cccc(Cl)c2)c(-c2ccnc(NC(C)=O)c2)s1 [Example 103-2, ethyl [5-(2-acetylamino-4-pyridyl)-4-(3-chlorophenyl)-1,3-thiazol-2-yl]acetate]"
5,131 to 132,"CCC(=O)Nc1cc(-c2sc(C(C)O)nc2-c2cccc(Cl)c2)ccn1 (stereo not drawn) [Example 105, N-[4-[4-(3-chlorophenyl)-2-(1-hydroxyethyl)-1,3-thiazol-5-yl]-2-pyridyl]propionamide]"
6,115 to 117,"CCC(=O)Nc1cc(-c2sc(C(C)=O)nc2-c2cccc(Cl)c2)ccn1 [Example 107, N-[4-[2-acetyl-4-(3-chlorophenyl)-1,3-thiazol-5-yl]-2-pyridyl]propionamide]"
7,177 to 180,"CCNC(=O)Nc1cc(-c2sc(CC)nc2-c2cccc(C)c2)ccn1 [Example 108, N-ethyl-N′-[4-[2-ethyl-4-(3-methylphenyl)-1,3-thiazol-5-yl]-2-pyridyl]urea]"
8,110 to 113,"CC(=O)Nc1cc(-c2sc(C(C)OC(=O)c3ccccc3)nc2-c2cccc(C)c2)ccn1 (stereo not drawn) [Example 110, 1-[5-(2-acetylamino-4-pyridyl)-4-(3-methylphenyl)-1,3-thiazol-2-yl]ethyl benzoate]"
9,99 to 102,"CC(=O)Nc1cc(-c2sc(C(C)O)nc2-c2cccc(C)c2)ccn1 (stereo not drawn) [Example 111-1, N-[4-[2-(1-hydroxyethyl)-4-(3-methylphenyl)-1,3-thiazol-5-yl]-2-pyridyl]acetamide]"
10,142 to 145,"CC(=O)Nc1cc(-c2sc(C(C)O)nc2-c2cccc(Cl)c2)ccn1 (stereo not drawn) [Example 111-2, N-[4-[4-(3-chlorophenyl)-2-(1-hydroxyethyl)-1,3-thiazol-5-yl]-2-pyridyl]acetamide]"
11,180 to 183,"CC(=O)Nc1cc(-c2sc(C(C)=O)nc2-c2cccc(Cl)c2)ccn1 [Example 112, N-[4-[2-acetyl-4-(3-chlorophenyl)-1,3-thiazol-5-yl]-2-pyridyl]acetamide]"
12,113 to 114,"CSCc1nc(-c2cccc(C)c2)c(-c2ccnc(N)c2)s1 [Example 113-1, 4-[4-(3-methylphenyl)-2-(methylthio)methyl-1,3-thiazol-5-yl]-2-pyridylamine]"
13,140 to 141,"Cc1cccc(-c2nc(C(C)(F)F)sc2-c2ccnc(N)c2)c1 [Example 113-2, 4-[2-(1,1-difluoroethyl)-4-(3-methylphenyl)-1,3-thiazol-5-yl]-2-pyridylamine]"
14,190 to 191,"COc1cccc(-c2nc(N)sc2-c2ccnc(F)c2)c1 [Example Compound 7-1, [5-(2-fluoro-4-pyridyl)-4-(3-methoxyphenyl)-1,3-thiazol-2-yl]amine]"
15,243 to 245,"Nc1nc(-c2ccc(F)cc2)c(-c2ccnc(F)c2)s1 [Example Compound 7-3, [4-(4-fluorophenyl)-5-(2-fluoro-4-pyridyl)-1,3-thiazol-2-yl]amine]"
16,205 to 206,"Cc1cccc(-c2nc(N)sc2-c2ccnc(C)c2)c1 [Example Compound 7-4, [4-(3-methylphenyl)-5-(2-methyl-4-pyridyl)-1,3-thiazol-2-yl]amine]"
17,219 to 220,"Cc1cc(C)cc(-c2nc(N)sc2-c2ccnc(C)c2)c1 [Example Compound 7-5, [4-(3,5-dimethylphenyl)-5-(2-methyl-4-pyridyl)-1,3-thiazol-2-yl]amine]"
18,214 to 216,"Cc1cccc(N2C=C(c3cc(C)nc(C)c3)SC2N)c1 (stereo not drawn) [Example Compound 7-6, [5-(2,6-dimethyl-4-pyridyl)-3-(3-methylphenyl)-1,3-thiazol-2-yl]amine]"
19,256 to 258,"Cc1cc(C)cc(-c2nc(N)sc2-c2cc(C)nc(C)c2)c1 [Example Compound 7-7, [4-(3,5-dimethylphenyl)-5-(2,6-dimethyl-4-pyridyl)-1,3-thiazol-2-yl]amine]"
20,233 to 234,"Cc1cc(-c2sc(N)nc2-c2ccc(F)cc2)ccn1 [Example Compound 7-8, [4-(4-fluorophenyl)-5-(2-methyl-4-pyridyl)-1,3-thiazol-2-yl]amine]"
21,186 to 187,"CNc1nc(-c2cccc(C)c2)c(-c2ccnc(F)c2)s1 [Example Compound 8, N-methyl-[5-(2-fluoro-4-pyridyl)-4-(3-methylphenyl)-1,3-thiazol-2-yl]amine]"
22,164 to 165,"CNc1nc(-c2cccc(C)c2)c(-c2ccnc(C)c2)s1 [Example Compound 9, N-methyl-[4-(3-methylphenyl)-5-(2-methyl-4-pyridyl)-1,3-thiazol-2-yl]amine]"
23,77 to 79,"Cc1cccc(-c2nc(N(C)C)sc2-c2ccnc(C)c2)c1 [Example Compound 10, N,N-dimethyl-[4-(3-methylphenyl)-5-(2-methyl-4-pyridyl)-1,3-thiazol-2-yl]amine]"
24,102 to 103,"CCc1nc(-c2cccc(Cl)c2)c(-c2ccnc(F)c2)s1 [Example Compound 12, 2-ethyl-4-(3-chlorophenyl)-5-(2-fluoro-4-pyridyl)-1,3-thiazole]"
25,83 to 84,"Cc1cccc(-c2nc(-c3ccccc3Cl)sc2-c2ccnc(C)c2)c1 [Example Compound 14-1, 2-(2-chlorophenyl)-4-(3-methylphenyl)-5-(2-methyl-4-pyridyl)-1,3-thiazole]"
26,104 to 105,"Cc1cccc(-c2nc(-c3ccc(Cl)cc3)sc2-c2ccnc(C)c2)c1 [Example Compound 14-2, 2-(4-chlorophenyl)-4-(3-methylphenyl)-5-(2-methyl-4-pyridyl)-1,3-thiazole]"
27,73 to 74,"Cc1cccc(-c2nc(-c3ccccc3F)sc2-c2ccnc(C)c2)c1 [Example Compound 14-3, 2-(2-fluorophenyl)-4-(3-methylphenyl)-5-(2-methyl-4-pyridyl)-1,3-thiazole]"
28,89 to 91,"Cc1cccc(-c2nc(-c3ccc(F)cc3)sc2-c2ccnc(C)c2)c1 [Example Compound 14-4, 2-(4-fluorophenyl)-4-(3-methylphenyl)-5-(2-methyl-4-pyridyl)-1,3-thiazole]"
29,90 to 91,"Cc1cccc(-c2nc(-c3ccc(F)cc3F)sc2-c2ccnc(C)c2)c1 [Example Compound 14-5, 2-(2,4-difluorophenyl)-4-(3-methylphenyl)-5-(2-methyl-4-pyridyl)-1,3-thiazole]"
30,79 to 80,"Cc1cccc(-c2nc(-c3ccccc3)sc2-c2ccnc(C)c2)c1 [Example Compound 14-6, 4-(3-methylphenyl)-5-(2-methyl-4-pyridyl)-2-phenyl-1,3-thiazole]"
